Test results published in the METLIN SMRT retention time set (Domingo-Almenara et al. 2019).

Test: gradient 5% acetonitrile 3 min, to 50% in 2 min, to 85% in 15 min, held 3 min, 100 µL/min
Details: column: Zorbax Extend-C18 2.1 x 50 mm; eluents: water / acetonitrile, 0.1% formic acid
Outline: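 A Zorbax Extend-C18 column (2.1 × 50 mm, 1.8 μm) run at 100 μL/min with water and acetonitrile, both containing 0.1% formic acid, separated mixtures of ~100 pure standards. The HPLC was coupled to a quadrupole time-of-flight mass spectrometer operated in positive and negative ionization mode, with dead and dwell volumes of 40 μL and 900 μL. Each retention time was taken from a computationally picked adduct peak that was then manually inspected.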

| Structure (SMILES) | RP-LC retention time |
| --- | --- |
| O=C(c1cc(S(=O)(=O)N2CCCC(C(=O)N3CCc4ccccc43)C2)c[nH]1)N1CCCCCC1 (stereo not given) | 949 s |
| O=C(NC1CCCCC1)C1CCCN(C(=O)c2cc(-c3cccnc3)n[nH]2)C1 (stereo not given) | 622 s |
| CCC(C)NC(=O)Cn1cnc2nc(N3CCC(C(=O)NC4CC4)CC3)sc2c1=O (stereo not given) | 1140 s |
| CC(C)(C)C(=O)Nc1ccc2nc(N3CCN(c4ccccc4)CC3)cc(C(=O)O)c2c1 | 683 s |
| CCN(CC)C(=O)c1ccc2c(c1)N(CC(=O)N1CCC(C)CC1)C(=O)C1CCCCN21 (stereo not given) | 838 s |
| Cn1nc(-c2nnc(-c3ccccc3F)o2)c2c1CCN(S(=O)(=O)c1ccc(F)c(Cl)c1)C2 | 990 s |
| Cc1cccc(N(C(=O)c2cnc3n(c2=O)CCS3)C2CCCCC2)c1 | 782 s |
| Cc1cccc(NS(=O)(=O)c2cn(C(C)C)c3ncccc23)c1 | 892 s |
| O=C(NCc1ccc(Cl)cc1)C1CCCN(c2nn3c(=O)c4c(nc3s2)CCCC4)C1 (stereo not given) | 808 s |
| COc1ccc(Nc2ncccc2S(N)(=O)=O)cc1Cl | 801 s |
| CCc1nc(-c2csc(S(=O)(=O)N3CCC(C(=O)N4CCCCC4)CC3)c2)no1 | 903 s |
| CCOc1ccc(Cl)cc1S(=O)(=O)N1CCC(C(=O)NC2CCCC2)CC1 | 916 s |
| Cc1ccc(Cn2cc(-c3ccncc3)cc2C(=O)N2CCC(N3CCCCC3)CC2)cc1 | 564 s |
| O=C(NC1CCN(c2nnc3ccc(C(F)(F)F)cn23)CC1)c1cccc(F)c1 | 782 s |
| CCOC(=O)c1ccc(NC(=O)N2CCc3nc[nH]c3C2)cc1 | 609 s |
| CC1CO/C(=C2\C(=O)OCC2C)C1 (stereo not given) | 812 s |
| COc1ccc(C)cc1NC(=O)N1CCCC1c1cc(C)on1 (stereo not given) | 863 s |
| CCOCCCNC(=O)c1c(N2CCCC2=O)c2cc(OC)ccc2n1CC | 761 s |
| CNC(=O)[C@@H]1CCCN1C(=O)c1ccccc1 | 587 s |
| COc1cccc(CCC(=O)N2C[C@@H]3C[C@H](NC(=O)c4cccs4)[C@H]2C3)c1 | 728 s |
| O=C(Nc1ncnc2sccc12)C1COc2ccccc2O1 (stereo not given) | 718 s |
| CCc1ccc(-n2cc(C(=O)OCc3cc(=O)n4ccccc4n3)c3ccccc3c2=O)cc1 | 991 s |

| Structure (SMILES) | RP-LC retention time |
| --- | --- |
| O=S(=O)(c1cccc(C(F)(F)F)c1)N1CCC(CN2CCCCC2)CC1 | 680 s |
| Cc1nc(-c2ccc(NC(=O)N3CCN(c4ccccn4)CC3)cc2)no1 | 588 s |
| COc1ccc2[nH]cc(CCN3CC(C(=O)N4CCc5ccccc54)CC3=O)c2c1 (stereo not given) | 802 s |
| CCCn1c(-c2cccc(C(=O)NCc3cccc(C(F)(F)F)c3)c2)nc2cccnc21 | 936 s |
| CC(C)(C)c1ccc(-c2noc(Cn3c(=O)n(CCc4ccccc4)c(=O)c4sccc43)n2)cc1 | 1360 s |
| Cc1cc(N2CCN(S(=O)(=O)c3cc(F)ccc3F)CC2)nc(N2CCCCC2)n1 | 769 s |
| COc1cccc(-c2cc3c(=O)n(Cc4nc(-c5ccc(Cl)cc5)no4)ccn3n2)c1 | 1120 s |
| O=C(CN1C(=O)CCCc2cc(S(=O)(=O)N3CCCC3)ccc21)NC1CCCCCC1 | 848 s |
| CCc1ccc(NC(=O)c2ccc(=O)n(CCN3CCOCC3)c2)cc1 | 637 s |
| Cc1nc(-c2cn(C(C)C)c3ncccc23)sc1C(=O)NC1CCCC1 | 1000 s |
| CCCCn1nnnc1NCc1ccc2c(c1)n(C)c(=O)n2C | 647 s |
| COc1ccc(-c2noc(C3CCCN3C(=O)c3ccnn3C)n2)cc1 (stereo not given) | 808 s |
| O=C(NC(c1ccccc1)c1nnc(N2CCOCC2)o1)c1ccc(Cl)cc1 (stereo not given) | 781 s |
| COc1ccc(-c2noc(-c3nnn4c3COC(c3ccc(C)cc3C)C4)n2)cc1OC (stereo not given) | 1190 s |
| CCCCCn1c(=O)c2ccccc2n(Cc2nc(-c3cccc(C)c3)no2)c1=O | 1310 s |
| CCCN(C)c1nccn2c(=O)n(CC(=O)Nc3ccc(C)cc3)nc12 | 683 s |
| O=c1ccc(N2CCCN(S(=O)(=O)c3ccccc3F)CC2)nn1-c1ccccc1 | 820 s |
| COc1cc(OC)cc(C(=O)N2CCC3(C2)C(=O)Nc2ccc(OC)cc23)c1 (stereo not given) | 710 s |
| CCCn1ccc2oc(C)c(C(=O)NCc3cc(F)ccc3F)c2c1=O | 1040 s |
| Cc1oc(-c2ccc(Cl)cc2)nc1CN1CCCC(C(=O)NC2CCCCC2C)C1 (stereo not given) | 835 s |
| Cc1oc(C2CCN(C(=O)Cc3ccccc3Cl)CC2)nc1C(=O)N1CCCC1 | 820 s |
| Cc1ccc(NS(=O)(=O)c2ccc3c4c(cccc24)C(=O)N3)c(C)c1 | 751 s |

| Structure (SMILES) | RP-LC retention time |
| --- | --- |
| Cc1cccc(S(=O)(=O)N2CCc3nc(-c4ccc(Cl)cc4)ncc3C2)c1 | 1210 s |
| Cc1ccc(Cn2c(N3CCC(C(=O)NC4CC4)CC3)nc3ccsc3c2=O)cc1 | 783 s |
| O=C(CCC1CCCC1)N1CCc2c([nH]c3ccccc23)C1c1ccc(Cl)cc1 (stereo not given) | 1060 s |
| COc1ccc2c(c1O)[C@]13CCN(C)[C@H](C2)[C@@H]1CCC(=O)C3 | 622 s |
| O=C(C1CCCN(c2ncnc3c2nc2n3CCCCC2)C1)N1CCN(C2CCCCC2)CC1 (stereo not given) | 604 s |
| Cn1c(=O)n([C@H]2CCCN(S(=O)(=O)c3cccc4nsnc34)C2)c2ncccc21 | 822 s |
| Cc1cc2ccccc2n1CCNC(=O)C(=O)c1cn(CC(=O)N2CCCC2)c2ccccc12 | 1010 s |
| O=C(C1=C2CCCN2c2ccccc2S1(=O)=O)N1CCN(c2ccc(F)cc2)CC1 | 796 s |
| CCCCN1C(SCC(=O)NCc2cccs2)=NS(=O)(=O)c2ccccc21 | 782 s |
| O=C(Cc1cccs1)N1CCN(C(=O)c2cc3ccccc3[nH]2)CC1 | 767 s |
| Cc1nc(NC(=O)C2CC(=O)N(c3n[nH]c4cccc(F)c34)C2)sc1C (stereo not given) | 688 s |
| COc1ccc(C2C(C(=O)NC3CCCCCC3)CCC(=O)N2c2ccc(OC)cc2)cc1 (stereo not given) | 807 s |
| O=C(NCc1cccnc1)C1CCCN(c2ncnc3c2oc2ccccc23)C1 (stereo not given) | 576 s |
| COc1ccccc1-c1noc(C2CCCN2C(=O)c2ccccc2C)n1 (stereo not given) | 896 s |
| CCOc1ccc(-c2cc3c(=O)n(CC(O)c4ccc(C(C)C)cc4)ccn3n2)cc1 (stereo not given) | 1120 s |
| COc1ccc(Cn2nc3c(S(=O)(=O)N4CCOCC4)cccn3c2=O)cc1 | 734 s |
| CCC(=O)N(C1CCOCC1)C1CCN(S(=O)(=O)c2ccc(F)c(F)c2)CC1 | 856 s |
| COC(=O)C1=C(C)NC(SCC(=O)NC2CCCCC2)=C(C#N)C1c1ccccc1F (stereo not given) | 1020 s |
| Cc1cccc(OCc2nc(-c3ccc4ncn(C(C)C)c4c3)no2)c1 | 839 s |
| O=C(CN1C(=O)C(C(=O)N2CCCCC2)Sc2ccccc21)N1CCN(c2ccccc2F)CC1 (stereo not given) | 960 s |
| COc1ccc(CN2CC3(CCN(S(=O)(=O)c4ccccc4Cl)CC3)C2=O)cc1 | 913 s |
